Measurements as given in patent publication US11712438B2, “Phenyl derivatives as PGE2 receptor modulators” (IDORSIA PHARMACEUTICALS LTD, priority 2017, dated 2023).
pIC50: −log10 of the molar value.

How the values were obtained:
Assay in all cases: cell-based
PTRGER4 (EP4) = PTRGER4 (EP4) (Homo sapiens, UniProt P35408);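 also: assay plate preincubated 15 min at 37 °C, after which PGE2 was added at 20 nM final and incubation continued 120 min at 37 °C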
PTGER2 (EP2) = PTGER2 (EP2) (Homo sapiens, UniProt P43116)
Chain of PTGER2 (EP2) (P43116 whole entry): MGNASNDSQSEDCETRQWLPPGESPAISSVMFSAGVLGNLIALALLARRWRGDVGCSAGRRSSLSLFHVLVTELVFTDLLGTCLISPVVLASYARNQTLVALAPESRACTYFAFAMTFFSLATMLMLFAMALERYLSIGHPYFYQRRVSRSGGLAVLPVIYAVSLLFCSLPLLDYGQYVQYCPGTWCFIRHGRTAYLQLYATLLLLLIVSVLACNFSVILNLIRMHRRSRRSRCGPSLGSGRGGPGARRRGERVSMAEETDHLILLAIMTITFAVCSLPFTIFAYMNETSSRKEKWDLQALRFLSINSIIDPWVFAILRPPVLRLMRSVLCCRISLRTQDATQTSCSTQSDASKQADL

EP4 = EP4 (Homo sapiens, UniProt P35408);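 also: inhibition of PGE2-evoked (6 nM) cAMP accumulation in BT549 breast cancer cells endogenously expressing EP4, cAMP read by HTRF competitive immunoassay after 30 min at room temperature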
Chain of EP4 (P35408 whole entry): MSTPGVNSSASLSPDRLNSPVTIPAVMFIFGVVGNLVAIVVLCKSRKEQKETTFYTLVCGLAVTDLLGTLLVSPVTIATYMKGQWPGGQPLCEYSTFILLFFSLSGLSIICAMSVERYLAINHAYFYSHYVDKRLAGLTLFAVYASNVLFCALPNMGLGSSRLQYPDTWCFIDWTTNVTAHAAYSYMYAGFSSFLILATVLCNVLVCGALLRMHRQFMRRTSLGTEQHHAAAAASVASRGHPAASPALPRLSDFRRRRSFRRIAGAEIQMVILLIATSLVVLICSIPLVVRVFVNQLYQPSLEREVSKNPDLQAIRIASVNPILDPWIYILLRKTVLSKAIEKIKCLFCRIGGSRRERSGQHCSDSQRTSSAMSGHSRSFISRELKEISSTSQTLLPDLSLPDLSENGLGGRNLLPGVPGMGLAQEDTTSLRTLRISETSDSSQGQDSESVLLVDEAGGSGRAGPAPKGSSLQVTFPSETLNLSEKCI
From the text: Human tumor cell lines expressing endogenously either EP4 or EP2 are used and cAMP accumulation in cells upon PGE2 stimulation is monitored.
As a detection method for cAMP the HTRF (homogeneous time resolved fluorescence) Cisbio kit (HTRF cAMP dynamic 2 kit 20′000 tests Cisbio Cat. #62AM4PEC) was used, which is based on a competitive immunoassay using a Cryptate-labeled anti-cAMP antibody and d2-labeled cAMP. Native cAMP produced by cells or unlabeled cAMP (for the standard curve) compete with exogenously added d2-labeled cAMP (acceptor) for binding to monoclonal anti-cAMP-Eu3+ Cryptate (donor). A FRET signal (Fluorescence Resonance Energy Transfer) is obtained only if the labeled anti-cAMP antibody binds the d2 labelled cAMP, thus the specific signal (i.e. energy transfer) is inversely proportional to the concentration of cAMP in the standard or sample.
The BT549 cells (NCI/No. 0507282) are detached from culture dishes with a cell dissociation buffer (Invitrogen, 13151-014), and collected in growing medium (GM: RPM11640 (Invitrogen 21875)/10% FCS, 1% Penicilin/streptomycin). Cells are counted washed and resuspended in assay buffer (AB; HBSS, 20 mM HEPES, 0.2% BSA; 2 mM IBMX). 4′000 cells in 5 μl of AB are seeded per well of a small volume 384 well plate (black with flat bottom, Greiner 784076).
Stock solutions of test compounds are made at a concentration of 10 mM in DMSO, and serially diluted in DMSO to concentrations required for inhibition dose response curves (tested concentration range 30 μM-0.4 nM; 30 μM-0.015 nM or 1 μM-0.01 nM).
PGE2 (Cayman 14010, stock solution: 6 μM in DMSO) is used as agonist at 6 nM final concentration, corresponding to EC80.
Two point five microliters of diluted compounds are transferred into the assay plate. Plate is pre-incubated 45 minutes at room temperature. Subsequently, 2.5 microliters of PGE2 (final conc. 6 nM) are transferred into the assay plate. Plate is incubated 30 minutes at room temperature.
For each compound concentration the percentage of cAMP compared to DMSO control value as average±STDEV (each concentration is measured in duplicate) is calculated.
When compounds were measured multiple times, mean values are given.

EP2 = EP2 (Homo sapiens, UniProt P43116);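 also: SF295 glioblastoma cells with endogenous EP2 only, PGE2-stimulated cAMP accumulation read by HTRF competitive immunoassay, 45 min pre-incubation then 30 min at room temperature, IBMX in buffer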
Chain of EP2 (P43116 whole entry): as the sequence (P43116 whole entry) above

Chain of PTRGER4 (EP4) (P35408 whole entry): as the sequence (P35408 whole entry) above

Row | pIC50 (PTRGER4 (EP4)) | pIC50 (PTGER2 (EP2)) | pIC50 (EP4) | pIC50 (EP2) | SMILES
1 | 7.08 | 6.87 | 6.42 | 5.99 | CCOc1cc(-c2cc(NCCc3c(F)cc(Br)cc3F)ncn2)ccc1Cc1noc(=O)[nH]1 [Example 282, 3-(4-{6-[2-(4-Bromo-2,6-difluoro-phenyl)-ethylamino]-pyrimidin-4-yl}-2-ethoxy-benzyl)-[1,2,4]oxadiazol-5(4H)-one]
2 | 6.61 | 6.93 | 6.23 | 6.02 | CCOc1cc(-c2cc(NCCc3c(F)cc(Br)cc3F)ncn2)ccc1Cc1noc(=S)[nH]1 [Example 283, 3-(4-{6-[2-(4-Bromo-2,6-difluoro-phenyl)-ethylamino]-pyrimidin-4-yl}-2-ethoxy-benzyl)-[1,2,4]oxadiazole-5(4H)-thione]
3 | 6.51 | 7.10 | 6.49 | 6.63 | O=c1[nH]c(-c2ccc(-c3cc(NCCc4c(F)cc(Br)cc4F)ncn3)cn2)no1 [Example 289, 3-(5-{6-[2-(4-Bromo-2,6-difluoro-phenyl)-ethylamino]-pyrimidin-4-yl}-pyridin-2-yl)-[1,2,4]oxadiazol-5(4H)-one]
4 | 7.11 | 7.06 | 6.81 | 6.11 | COc1cc(-c2noc(=O)[nH]2)ccc1-c1cc(NCCc2c(F)cc(Br)cc2F)ncn1 [Example 291, 3-(4-{6-[2-(4-Bromo-2,6-difluoro-phenyl)-ethylamino]-pyrimidin-4-yl}-3-methoxy-phenyl)-[1,2,4]oxadiazol-5(4H)-one]
5 | 7.39 | 6.86 | 6.49 | 6.05 | CCOc1c(C(N)=O)sc(-c2cc(NCCc3c(F)cc(Br)cc3F)ncn2)c1Cl [Example 293, 5-{6-[2-(4-Bromo-2,6-difluoro-phenyl)-ethylamino]-pyrimidin-4-yl}-4-chloro-3-ethoxy-thiophene-2-carboxylic acid amide]
6 | 7.74 | 7.57 | 7.66 | 7.33 | CCOc1cc(-c2cc(NCCc3c(F)cc(Br)cc3F)ncn2)sc1-n1nn[nH]c1=O [Example 294, 1-(5-{6-[2-(4-Bromo-2,6-difluoro-phenyl)-ethylamino]-pyrimidin-4-yl}-3-ethoxy-thiophen-2-yl)-1,4-dihydro-tetrazol-5-one]
7 | 8.70 | 7.92 | 8.70 | 7.08 | CCOc1cc(-c2cc(NCCc3c(F)cc(Br)cc3F)ncn2)sc1-c1noc(=S)[nH]1 [Example 295, 3-(5-{6-[2-(4-Bromo-2,6-difluoro-phenyl)-ethylamino]-pyrimidin-4-yl}-3-ethoxy-thiophen-2-yl)-[1,2,4]oxadiazole-5(4H)-thione]
8 | 8.05 | 7.92 | 7.85 | 7.36 | CNc1cc(-c2cc(NCCc3c(F)cc(Br)cc3F)ncn2)ccc1-c1noc(=O)[nH]1 [Example 296, 3-(4-{6-[2-(4-Bromo-2,6-difluoro-phenyl)-ethylamino]-pyrimidin-4-yl}-2-methylamino-phenyl)-[1,2,4]oxadiazol-5(4H)-one]
9 | 7.21 | 7.26 | 7.57 | 6.77 | CCCc1cc(-c2cc(NCCc3c(F)cc(Br)cc3F)ncn2)sc1CC(=O)O [Example 314, (5-{6-[2-(4-Bromo-2,6-difluoro-phenyl)-ethylamino]-pyrimidin-4-yl}-3-propyl-thiophen-2-yl)-acetic acid]
10 | 7.42 | 7.60 | 7.55 | 7.77 | O=C(O)Cc1sc(-c2cc(NCCc3c(F)cc(Br)cc3F)ncn2)cc1OC(F)F [Example 315, (5-{6-[2-(4-Bromo-2,6-difluoro-phenyl)-ethylamino]-pyrimidin-4-yl}-3-difluoromethoxy-thiophen-2-yl)-acetic acid]
